Assay results published in paper PMC5578599, “Programmed cell death in Acanthamoeba castellanii Neff induced by several molecules present in olive leaf extracts” (PLoS ONE, 2017).
Values after ≈ are worked out from the molar mass of the structure shown. “Also recorded” adds a separate entry of the source. Read-outs that look alike come from different tables or passages of the source.

Assays:
[1] = system: Acanthamoeba castellanii Neff (ATCC 30010); assay: Alamar Blue assay against the trophozoite stage, A. castellanii Neff; assay type: cell-based; conditions: IC50/96 h; for IC50: Acanthamoeba castellanii, ATCC30010, trophozoites; for IC50 A. Neff: trophozoites
[2] = system: CLC-51, genotype T1; assay: Alamar Blue assay against the trophozoite stage, clinical isolate CLC-51; assay type: cell-based; conditions: Acanthamoeba, trophozoites, IC50/96 h
Method: (§1) The strains used in this study included a type strain: Acanthamoeba castellanii Neff (ATCC 30010), and two clinical isolates, CLC-16, genotype T3; and CLC-51, genotype T1, which were isolated in a previous study. The strains were axenically grown in PYG medium (0.75% (w/v) proteose peptone, 0.75% (w/v) yeast extract and 1.5% (w/v) glucose) containing 40 μg/ml of gentamicin (Biochrom AG, Cultek, Granollers, Barcelona, Spain).
(§2) The anti-Acanthamoeba activities of the tested molecules were determined using the Alamar Blue® assay as previously described. Briefly, Acanthamoeba strains were seeded in duplicate on a 96-well microtiter plates with 50μl from a stock solution of 10^4 cells/ml. Amoebae were left to adhere for 15 min process which was checked using a Leika DMIL inverted microscope (Leika, Wetzlar, Germany). After that, 50 μl of serial dilutions of the molecules to be evaluated were added to the wells (In all tests, 1% DMSO was used to dissolve the highest dose of the compounds without inducing any effects on the parasites). Finally the Alamar Blue Reagent® (Life Technologies, Madrid, Spain) was placed into each well at an amount equal to 10% of the final volume. Test plates containing Alamar Blue were then incubated for 120 h at 28°C with a slight agitation.
(§3) Subsequently the plates were analyzed, during an interval of time between 72 and 144 h, on an EnSpire® Multimode Plate Reader (Perkin Elmer, Madrid, Spain) using a test wavelength of 570 nm and a reference wavelength of 630 nm. Percentages of growth inhibition, 50% and 90% inhibitory concentrations (IC50 and IC90) were calculated by linear regression analysis with 95% confidence limits. All experiments were performed three times, and the mean values were also calculated.

[3] = system: macrophages J774.A1; assay: LDH release cytotoxicity test; assay type: cell-based, murine; conditions: for Cytotoxicity level at the IC50 against Acanthamoeba / Cytotoxicity level at the IC90 against Acanthamoeba: J774A.1 murine macrophages, 24 hours, LDH release; for Cytotoxicity level at the IC50 against Acanthamoeba: compound at its IC50; for Cytotoxicity level at the IC90 against Acanthamoeba: compound at its IC90
Method: A commercial kit was used for the evaluation of the induced cytotoxic effects of tested compounds based on the measurement of lactate dehydrogenase (LDH) quantity released to the media (LDH Cytotoxicity Detection Kit, Roche Applied Science, Madrid, Spain), following the manufacturer's instructions. Briefly, the macrophages J774.A1 (ATCC # TIB-67) were incubated with different concentrations of the tested compounds for 24 hours in duplicate. After incubation, supernatants were obtained and LDH levels were determined following manufacturer′s instructions. To determine the cytotoxicity percentages, the average absorbance values of the duplicates were calculated and compared with negative and positive controls. Cytotoxic levels were determined as previously described.

[4] = system: CLC-16, genotype T3; assay: Alamar Blue assay against the trophozoite stage, clinical isolate CLC-16; assay type: cell-based; conditions: Acanthamoeba, trophozoites, IC50/96 h
Method: as §1, §2, §3

[5] = system: Acanthamoeba castellanii Neff (ATCC 30010); assay: Alamar Blue assay against the trophozoite stage, A. castellanii Neff; assay type: cell-based; conditions: for IC90: ATCC30010, trophozoites, Alamar Blue
Method: as §1, §2, §3

[6] = system: A. Neff; assay: JC-1 mitochondrial membrane potential; assay type: cell-based, Acanthamoeba castellanii; conditions: IC90, 24 hours
Method: The ΔΨm was measured using JC-1 Mitochondrial Membrane Potential Assay Kit (Cayman Chemical, Vitro, Madrid, Spain). This lipophilic cationic probe accumulates in the mitochondrial matrix according to the membrane potential. In healthy cells with a high ΔΨm, JC-1 spontaneously forms complexes known as J-aggregates, showing intense red fluorescence (emission at 595 nm). […] In brief, amoebae, after 24 hours of incubation with different concentrations of the tested compounds, were harvested and washed with buffer. The cells were then incubated at 26°C for 30 minutes with JC-1 dye. Cells were then analyzed by fluorescence measurement in black plates through spectrofluorometer using 490 nm as excitation wavelength. Data presented here are representative of three experiments. The ratio of the reading at 595 nm to the reading at 535 nm was considered as the relative ΔΨm value.

[7] = system: A. Neff membrane; assay: SYTOX Green plasma membrane permeability; assay type: cell-based, Acanthamoeba castellanii; conditions: IC90, SYTOX Green, relative to Triton X-100 positive control
Method: The SYTOX® Green assay was performed to detect membrane permeability alterations on the parasites. Briefly, 10^5 amoebae/ml were incubated with the SYTOX® Green at a final concentration of 1 μM (Molecular Probes®) for 30 min in the dark at 26°C. Subsequently, parasites were disposed to black plates and the tested compounds were added at the IC90. The increase in fluorescence due to binding of the fluorescent marker to the amoebic DNA was measured using an EnSpire® Multimode Plate Reader (Perkin Elmer, Madrid, Spain) with excitation wavelength of 504 nm and emission wavelength at 523 nm, and expressed as percentage relative to full permeabilized cells achieved by the addition of 0.1% Triton X-100 [17–19].

[8] = system: Acanthamoeba castellanii Neff; assay: Annexin-V/PI image-based cytometry for apoptosis; assay type: cell-based; conditions: treated with IC90, 24 h
Method: Annexin-V/propidium iodide (PI) double staining assay was performed using the Tali® Apoptosis Kit—Annexin V Alexa Fluor® 488 & Propidium Iodide according to the manufacturer's instructions (Life Technologies, Madrid, Spain). […] After that, cells were centrifuged and resuspended in ABB containing 1 μl of PI and incubated for 3 min at room temperature. Finally, 25 μl of the stained cells were loaded into a Tali® Cellular Analysis Slide and were analysed in the Tali® Image-Based Cytometer. Data were collected using the Tali® data acquisition and analysis software (Life Technologies, Madrid, Spain).

O=c1cc(-c2ccc(O)cc2)oc2cc(O)cc(O)c12 [Apigenine]
IC50 [1]: 6.59 ± 0.39 µg/mL (≈ 24.4 µM) | IC50 [2]: 20.2 ± 0.73 µg/mL (≈ 74.6 µM) | Cytotoxicity level at the IC50 against Acanthamoeba [3]: high cytotoxicity (abve 40% correspond to high cytotoxicity) | Cytotoxicity level at the IC90 against Acanthamoeba [3]: high cytotoxicity (abve 40% correspond to high cytotoxicity) | IC50 [4]: 57 ± 2.68 µg/mL (≈ 211 µM)

O=C(O)/C=C/c1ccc(O)c(O)c1 [Caffeic acid]
IC50 [1]: > 100 µg/mL

O.Oc1cc(O)c2c(c1)O[C@H](c1ccc(O)c(O)c1)[C@@H](O)C2 [Catechin hydrate]
IC50 A. Neff [1]: >100 µg/mL

O=C(/C=C/c1ccc(O)c(O)c1)O[C@@H]1C[C@](O)(C(=O)O)C[C@@H](O)[C@H]1O [Chlorogenic acid]
IC50 [1]: > 100 µg/mL

O=c1oc2c(O)c(O)cc3c(=O)oc4c(O)c(O)cc1c4c23 [Ellagic acid]
IC50 [1]: 67.4 ± 3.59 µg/mL (≈ 223 µM)

COc1cc(/C=C/C(=O)O)ccc1O [Ferulic acid]
IC50 A. Neff [1]: 62.03 ± 1.78 µg/mL (≈ 319 µM)

O=C(O)c1cc(O)c(O)c(O)c1 [Gallic acid]
IC50 [1]: > 100 µg/mL

OCCc1ccc(O)c(O)c1 [Hydroxytyrosol]
IC50 [1]: > 100 µg/mL

O=c1cc(-c2ccc(O)c(O)c2)oc2cc(O[C@@H]3O[C@H](CO)[C@@H](O)[C@H](O)[C@H]3O)cc(O)c12 [Luteolin 7-o-glucoside]
IC50 A. Neff [1]: 61.98 ± 3.93 µg/mL (≈ 138 µM)

O=c1cc(-c2ccc(O)c(O)c2)oc2cc(O)cc(O)c12 [Luteolin]
IC50 [1]: 28 ± 1.73 µg/mL (≈ 97.7 µM) | IC50 [2]: 26.6 ± 1.75 µg/mL (≈ 93 µM) | IC50 [4]: 83.1 ± 0.89 µg/mL (≈ 290 µM)

CC1(C)CC[C@]2(C(=O)O)CC[C@]3(C)C(=CC[C@@H]4[C@@]5(C)C[C@@H](O)[C@H](O)C(C)(C)[C@@H]5CC[C@]43C)[C@@H]2C1 [Maslinic acid]
IC50 ([5]; ATCC30010, read-out: IC50 A. Neff): 30.9 ± 1.33 µg/mL (≈ 65.3 µM)

CC1(C)CC[C@]2(C(=O)O)CC[C@]3(C)C(=CC[C@@H]4[C@@]5(C)CC[C@H](O)C(C)(C)[C@@H]5CC[C@]43C)[C@@H]2C1 [Oleanolic acid]
IC50 [1]: 43.7 ± 3.34 µg/mL (≈ 95.6 µM)

C/C=C1/[C@H](O[C@@H]2O[C@H](CO)[C@@H](O)[C@H](O)[C@H]2O)OC=C(C(=O)OC)[C@H]1CC(=O)OCCc1ccc(O)c(O)c1 [Oleuropein]
IC50 [1]: 57.5 ± 4.32 µg/mL (≈ 106 µM)

O=C(O)c1ccc(O)c(O)c1 [Protochatechuic acid]
IC50 A. Neff [1]: 36.05 ± 1.31 µg/mL (≈ 234 µM)

O=c1c(O)c(-c2ccc(O)c(O)c2)oc2cc(O)cc(O)c12 [Quercetin hydrate]
IC50 [1]: > 100 µg/mL

C[C@@H]1O[C@@H](OC[C@H]2O[C@@H](Oc3c(-c4ccc(O)c(O)c4)oc4cc(O)cc(O)c4c3=O)[C@H](O)[C@@H](O)[C@@H]2O)[C@H](O)[C@H](O)[C@H]1O [Rutin]
IC50 [1]: 61.4 ± 5.44 µg/mL (≈ 101 µM)

COc1cc(C(=O)O)cc(OC)c1O [Syringic acid]
IC50 [1]: 22.9 ± 2.14 µg/mL (≈ 116 µM) | IC50 [2]: 63.07 ± 0.56 µg/mL (≈ 318 µM) | Decrease of the membrane potential (ΔΨm) [6]: 68% | Cytotoxicity (in words) ([3]; J774A.1 macrophages, Fig 2): lowest toxic levels | Cytotoxicity level at the IC50 against Acanthamoeba [3]: low cytotoxicity (Values between 10 and 25% correspond to low cytotoxicity) | Cytotoxicity level at the IC90 against Acanthamoeba [3]: low cytotoxicity (Values between 10 and 25% correspond to low cytotoxicity) | IC90 [5]: 119 µg/mL (≈ 602 µM) | IC50 [4]: 51.5 ± 2.41 µg/mL (≈ 260 µM) | Plasma membrane permeabilization [7]: induced the higher permeabilization; also recorded: caused plasma membrane permeability

OCCc1ccc(O)cc1 [Tyrosol]
IC50 [1]: 63.77 ± 0.34 µg/mL (≈ 462 µM)

C[C@H]1[C@H](C)CC[C@]2(C(=O)O)CC[C@]3(C)C(=CC[C@@H]4[C@@]5(C)CC[C@H](O)C(C)(C)[C@@H]5CC[C@]43C)[C@H]12 [Ursolic acid]
IC50 A. Neff [1]: 23.94 ± 1.14 µg/mL (≈ 52.4 µM) | Percentage of apoptotic cells [8]: 26% | IC50 [2]: 28 ± 2.26 µg/mL (≈ 61.2 µM) | Decrease of the membrane potential (ΔΨm) [6]: 80% | IC90 [5]: 119 µg/mL (≈ 261 µM) | IC50 [4]: 55 ± 1.21 µg/mL (≈ 120 µM)

COc1cc(C(=O)O)ccc1O [Vanillic acid]
IC50 [1]: 34.7 ± 1.32 µg/mL (≈ 206 µM) | IC50 [2]: 61.7 ± 4.43 µg/mL (≈ 367 µM) | Decrease of the membrane potential (ΔΨm) [6]: 68% | Cytotoxicity level at the IC50 against Acanthamoeba [3]: low cytotoxicity (Values between 10 and 25% correspond to low cytotoxicity) | IC90 [5]: 133 µg/mL (≈ 789 µM) | IC50 [4]: 65.4 ± 0.89 µg/mL (≈ 389 µM) | Plasma membrane permeabilization [7]: induced the higher permeabilization; also recorded: caused plasma membrane permeability

COc1cc(C=O)ccc1O [Vanillin]
IC50 [1]: 25.6 ± 2.1 µg/mL (≈ 168 µM) | IC50 [2]: 37.2 ± 2.85 µg/mL (≈ 244 µM) | Decrease of the membrane potential (ΔΨm) [6]: 36% | Cytotoxicity level at the IC50 against Acanthamoeba [3]: low cytotoxicity (Values between 10 and 25% correspond to low cytotoxicity) | IC90 [5]: 123 µg/mL (≈ 810 µM) | IC50 [4]: 58.1 ± 3.77 µg/mL (≈ 382 µM) | Plasma membrane permeabilization [7]: caused plasma membrane permeability

C[C@@H]1O[C@@H](O[C@@H]2[C@@H](O)[C@H](OCCc3ccc(O)c(O)c3)O[C@H](CO)[C@H]2OC(=O)/C=C/c2ccc(O)c(O)c2)[C@H](O)[C@H](O)[C@H]1O [Verbascoside]
IC50 [1]: > 100 µg/mL

O=C(O)/C=C/c1cccc(O)c1 [m-coumaric acid]
IC50 A. Neff [1]: 65.75 ± 3.97 µg/mL (≈ 401 µM)

O=C(O)/C=C/c1ccc(O)cc1 [p-coumaric acid]
IC50 [1]: 72.19 ± 0.19 µg/mL (≈ 440 µM)
